Laboratory results as given in US20240182444A1, “ANTI-VIRAL COMPOUNDS” (Aligos Therapeutics, Inc., priority 2022, published 2024).

How the values were obtained:
SARS-Cov-2 3CLpro = target: T1, SARS-Cov-2 3CLpro (Severe acute respiratory syndrome coronavirus 2, UniProt P0DTD1); experiment: SARS-Cov-2 3CLpro protease assay (SAMDI-MS); type: biochemical; conditions: 30 mins preincubation, duplex peptide substrates; read-out: SARS-Cov-2 (3CLpro IC50)
T1 construct: 3CLpro was added using a Multidrop Combi

[1] = test system: SARS-CoV-2 B.1.1.7 lineage; experiment: microbe, parasite or virus in culture; type: cell-based; conditions: Severe acute respiratory syndrome coronavirus 2, 96 h; read-out: A549-dual_ACE2_TMPRSS2 (EC50)
[2] = test system: human beta-coronavirus OC43; experiment: OC43 coronavirus antiviral assay in HeLa cells; type: cell-based; conditions: Betacoronavirus 1, 144 h, OC43, 6 days at 33° C., cell-titer-glo
Protocol: (§1) The human beta-coronavirus OC43 was purchased from ATCC (Manassas, VA) and propagated using HCT-8 human colorectal epithelial cells (ATCC). HeLa human cervical epithelial cells (ATCC) were used as susceptible host cell lines and were cultured using EMEM media, supplemented with 10% fetal bovine serum (FBS), 1% (v/v) penicillin/streptomycin (P/S), 1% (v/v) HEPES and 1% (v/v) cellgro Glutagro™ supplement (all Corning, Manassas, VA) at 37° C. For the OC43 antiviral assay, 1.5×10^4 HeLa cells per well were plated in 100 μL complete media in white 96-well plates with clear bottoms at 37° C. for up to 24 h to facilitate attachment and allow cells to recover from seeding stresses. Next day, the cell culture medium was removed. Serially diluted compounds in 100 μL assay media (EMEM, 2% FBS, 1% P/S, 1% cellgro Glutagro™ supplement, 1% HEPES) were added to the cells and incubated for 4 h at 37° C. in a humidified 5% CO2 incubator. 100 μL of OC43 virus stock was diluted to a concentration known to produce optimal cytopathic effect, inducing 80-90% reduction in cell viability. 96-well plates were incubated for 6 days at 33° C.; each plate contains uninfected control wells as well as virus-infected wells that were not treated with compound. Cytotoxicity plates without the addition of OC43 virus were carried out in parallel. At the end of the incubation period, 100 μL cell culture supernatant was replaced with 100 μL cell-titer-glo reagent (Promega, Madison, WI) and incubated for at least 10 min at rt prior to measuring luminescence. Luminescence was measured on a Perkin Elmer (Waltham, MA) Envision plate reader. Antiviral % inhibition was calculated as follows: [(Compound treated cells infected sample)−(no compound infected control)]/[(Uninfected control)−(no compound infected control)]*100; Using GraphPad (San Diego, CA) prism software version 8.3.1, the antiviral dose-response plot was generated as a sigmoidal fit, log(inhibitor) vs response-variable slope (four parameters) model and the EC50 was calculated which is the predicted compound concentration corresponding to a 50% inhibition of the viral cytopathic effect.
(§2) Table 2 indicates related EC50 and CC50 values for the tested compounds ‘A’ indicates an EC50<100 nM, ‘B’ indicates an EC50 of ≥100 nM and <1000 nM, ‘C’ indicates an EC50≥1000 nM and <10000 nM and ‘D’ indicates an EC50≥10000 nM and <100000 nM. For CC50, the values are reported in micromolar (M), ‘A’ indicates a CC50≥10000 nM and ‘B’ indicates a CC50≥1 μM and <10 μM.

[3] = Cytotoxicity in HeLa cells without OC43 virus; type: cell-based; conditions: human, HeLa cells (uninfected), in parallel
Protocol: as §1, §2

in vitro = conditions: human

SMILES	IC50 (SARS-Cov-2 3CLpro) [µM]	EC50 [1] [µM]	EC50 [2] [µM]	CC50 at 6 days [3] [µM]	CC50 (in vitro) [µM]
CC(C)(C)[C@H](NC(=O)C(F)(F)F)C(=O)N1C[C@@H]2[C@H]3C[C@@H]([C@@H]2[C@H]1C(=O)NC(C#N)c1cnn2cc(F)ccc12)[C@H](F)C3 (stereo partly drawn) [Compound 20]	< 0.02	< 0.1	0.1 to 1	≥ 10	> 1
CC(C)(C)[C@H](NC(=O)C(F)(F)F)C(=O)N1C[C@H]2[C@@H]([C@H]1C(=O)NC(C#N)c1cnc3ccccc3c1)[C@H]1C=C[C@@H]2C1 (stereo partly drawn) [Compound 15]	< 0.02	0.1 to 1	0.1 to 1	≥ 10	> 1
CC(C)(C)[C@H](NC(=O)C(F)(F)F)C(=O)N1C[C@@H]2[C@H]3C[C@@H]([C@@H]2[C@H]1C(=O)NC(C#N)c1cncc2cnccc12)[C@H](F)C3 (stereo partly drawn) [Compound 22]	< 0.02	0.1 to 1	1 to 10	≥ 10	> 1
COc1cccc2cncc([C@@H](C#N)NC(=O)[C@@H]3[C@@H]4[C@H](CN3C(=O)[C@@H](NC(=O)C(F)(F)F)C(C)(C)C)[C@H]3C[C@@H]4[C@H](F)C3)c12 [Compound 28]	< 0.02	< 0.1	< 0.1	≥ 10	> 1
CC(C)(C)[C@H](NC(=O)C(F)(F)F)C(=O)N1C[C@@H]2[C@H]3C[C@@H]([C@@H]2[C@H]1C(=O)NC(C#N)c1cncc2cccnc12)[C@H](F)C3 (stereo partly drawn) [Compound 9, (1S,2R,3S,6R,7S,9R)—N-[cyano(1,6-naphthyridin-8-yl)methyl]-4-[(2S)-3,3-dimethyl-2-(2,2,2-trifluoroacetamido)butanoyl]-9-fluoro-4-azatricyclo[5.2.1.0^{2,6}]decane-3-carboxamide]	< 0.02	< 0.1	< 0.1	≥ 10	> 1
CC(C)(C)[C@H](NC(=O)C(F)(F)F)C(=O)N1C[C@H]2[C@@H]([C@H]1C(=O)NC1(C#N)CCc3ccncc31)[C@H]1C=C[C@@H]2C1 (stereo partly drawn) [Compound 5, (1R,2S,3S,6R,7S)—N-{7-cyano-5H,6H-cyclopenta[c]pyridin-7-yl}-4-[(2S)-3,3-dimethyl-2-(2,2,2-trifluoroacetamido)butanoyl]-4-azatricyclo[5.2.1.0^{2,6}]dec-8-ene-3-carboxamide]	0.2 to 2	≥ 1	1 to 10	≥ 10	> 1
Cn1cc(C(C#N)NC(=O)[C@@H]2[C@@H]3[C@H](CN2C(=O)[C@@H](NC(=O)C(F)(F)F)C(C)(C)C)[C@@H]2C=C[C@H]3C2)cn1 (stereo partly drawn) [Compound 6, (1R,2S,3S,6R,7S)—N-[cyano(1-methylpyrazol-4-yl)methyl]-4-[(2S)-3,3-dimethyl-2-(2,2,2-trifluoroacetamido)butanoyl]-4-azatricyclo[5.2.1.0^{2,6}]dec-8-ene-3-carboxamide]	0.02 to 0.2	0.1 to 1	1 to 10	≥ 10	> 1
COc1cccc2cncc(C(C#N)NC(=O)[C@@H]3[C@@H]4[C@H](CN3C(=O)[C@@H](NC(=O)C(F)(F)F)C(C)(C)C)[C@H]3C[C@@H]4[C@H](F)C3)c12 (stereo partly drawn) [Compound 26]	< 0.02	< 0.1	< 0.1	≥ 10	> 1
CC(C)(C)[C@H](NC(=O)C(F)(F)F)C(=O)N1C[C@@H]2[C@H]3C[C@@H]([C@@H]2[C@H]1C(=O)NC(C#N)c1cncc2ccccc12)[C@H](F)C3 (stereo partly drawn) [Compound 7, (1S,2R,3S,6R,7S,9R)—N-[cyano(isoquinolin-4-yl)methyl]-4-[(2S)-3,3-dimethyl-2-(2,2,2-trifluoroacetamido)butanoyl]-9-fluoro-4-azatricyclo[5.2.1.0^{2,6}]decane-3-carboxamide]	< 0.02	< 0.1	< 0.1	≥ 10	> 1
